How the values were obtained:
Assay type in all cases: cell-based, human
[1] = test system: hPSCs; test: OCT4 and BRY immunofluorescence in hPSCs after CHIR99021; conditions: increasing doses of CHIR99021 in mTeSR1 for 48 hours; kinesin-2 knockout hPSCs, no significant difference from controls
Method: Cells and organoid cultures were fixed with 4% paraformaldehyde (Electron Microscopy Sciences) for 15 minutes, washed 3 times with Phosphate buffered saline (PBS, Thermo Fisher), blocked for 1 hour with blocking buffer (5% normal donkey serum and 0.3% Triton X-100 in PBS), and incubated overnight with primary antibodies including mouse acetylated α-tubulin (Sigma T7451), rabbit acetylated α-tubulin (Cell Signaling, D20G3), α-fetoprotein (AFP) (R&D MAB1368), α-smooth muscle actin (SMA) (R&D MAB1420), ZO-1 (Invitrogen, 339100), E-Cadherin (Abcam, ab11512), Nephrin (R&D, AF4269), p-Histone H3 (Santa Cruz sc-8656-R), OCT4 (Abcam ab19857), brachyury (BRY) (Santa Cruz sc-17745), SOX2 (Abcam ab97959), and 3-Tubulin III (Tuj1) (Sigma-Aldrich T2200-200UL). After washing with PBS, secondary donkey antibodies conjugated with Alexa-Fluor 488, 555, or 647 (1:500, Thermo Fisher) were applied, or Fluorescein Lotus Lectin (Vector Labs, FL-1321), with DAPI to stain the nuclei. […]
(§1) Fluorescence intensity analysis of BRY and OCT4 was performed on images processed and imaged identically, individual cells were identified automatically using Cell Profiler 2.0 and the average intensity per cell was plotted in BBP. […] Immunoblot band intensity levels were quantified using the ImageJ magic wand tool, normalized to the loading control, and pooled from multiple experiments to determine average and S.E.M. values. […]

[2] = test system: hedgehog signaling (GLI3, GLI1) in control hPSC kidney organoid cultures; test: GLI3 and GLI1 immunoblots of kidney organoid cultures from control hPSCs treated with hedgehog modulators
Method: (§2) KIF3A^−/−, KIF3B^−/− and isogenic control hPSCs were lysed with RIPA buffer containing protease and phosphatase inhibitors (Roche). Protein concentration was determined using a Pierce BCA protein assay kit. 50 μg of total protein was separated in a 4-20% acrylamide gel (Bio-Rad) and analyzed with silver stain (Bio-Rad) or transferred onto a PDVF membrane using standard procedures. 5% milk was used as a blocking agent prior to and during immunoblotting. Blots were probed with antibodies raised against PC1 (Santa Cruz sc-130554), PC2 (Santa Cruz sc-25749), KIF3A (Abcam ab11259), KIF3B (Cell Signaling 13817), […] (Cell Signaling 4970), FLOT1 (Cell Signaling 18634), IFT88 (Proteintech 13967-1-AP), ARL13B (Proteintech 17711-1-AP), GLI1 (Cell Signaling 3538), GLI2 (Abcam ab26056), PTCH1 (Cell Signaling 8358), ALIX (Cell Signaling 2171), ANXA5 (Cell Signaling 8555), GM130 (Cell Signaling 12480), HPS70 (Cell Signaling 4876), CD9 (Cell Signaling 13174), ICAM-1 (Cell Signaling 4915), and EpCAM (Cell Signaling 2626).
(§3) Kidney organoids were generated as previously described (Freedman, B. S. et al. Modelling kidney disease with CRISPR-mutant kidney organoids derived from human pluripotent epiblast spheroids. Nat Commun 6, 8715 (2015)). Briefly, dissociated hPSCs were plated into 96 or 24 well plates coated with 1% Geltrex (Thermo Fisher) in mTeSR1 (STEMCELL Technologies) supplemented with 10 μM Rho-kinase inhibitor Y27632 (Tocris Bioscience). The next morning, mTeSR1 containing 1.5% Geltrex was added to the wells, and the media was changed again to mTeSR1 24 hours later. 72 hours after plating, cells were treated with 12 μM CHIR99021 (Stemgent) in RPMI medium containing 1× Glutamax (Thermo Fisher) with 2 ng/ml recombinant BMP-4 (Peprotech) to induce kidney differentiation. 36 hours after treatment, the medium was changed to RPMI supplemented with B27 (RB medium, Thermo Fisher). RB medium changes were performed every three days. When indicated, organoid cultures were supplemented with 1 μM SAG or 10 μM Cyclopamine (both from Cayman Chemical) starting with the first addition of RB on day 1.5 (36 hours after CHIR99021 treatment on day 0) and maintained thereafter in RB media containing these compounds at all subsequent time points.
Fluorescence intensity analysis of BRY and OCT4 was performed on images processed and imaged identically, individual cells were identified automatically using Cell Profiler 2.0 and the average intensity per cell was plotted in BBP. Line scan analyses were conducted utilizing the Intensity Profile function in NIS Elements. A single line scan of equal length was performed on each structure, and subsequently these were averaged to generate the graphs, plotting pixel intensity values for each channel on the y-axis against the points along the line on the x-axis. Immunoblot band intensity levels were quantified using the ImageJ magic wand tool, normalized to the loading control, and pooled from multiple experiments to determine average and S.E.M. values. A two-tailed t-test for two samples with unequal variance was applied to determine significance. In cases where a treatment condition was applied, a paired t-test was performed. Statistical analyses were performed in GraphPad Prism 9 software.

[3] = test system: hedgehog signaling (GLI3, GLI1) in KIF3A−/− and KIF3B−/− mutants; test: GLI3 and GLI1 immunoblots of KIF3A−/− and KIF3B−/− kidney organoid cultures treated with hedgehog modulators; conditions: for GLI3/GLI1 response to prolonged treatment: day 18, 1 μM SAG or 10 μM cyclopamine starting on day 1.5
Method: as §2
Kidney organoids were generated as previously described (Freedman, B. S. et al. Modelling kidney disease with CRISPR-mutant kidney organoids derived from human pluripotent epiblast spheroids. Nat Commun 6, 8715 (2015)). Briefly, dissociated hPSCs were plated into 96 or 24 well plates coated with 1% Geltrex (Thermo Fisher) in mTeSR1 (STEMCELL Technologies) supplemented with 10 μM Rho-kinase inhibitor Y27632 (Tocris Bioscience). The next morning, mTeSR1 containing 1.5% Geltrex was added to the wells, and the media was changed again to mTeSR1 24 hours later. […]
as §1

[4] = test system: kidney organoid cultures derived from control hPSCs; test: Organoid lineage differentiation in control cultures (immunofluorescence, 96-wells); conditions: 1 μM SAG or 10 μM cyclopamine from day 1.5 to day 18
Method: as §3
Cells and organoid cultures were fixed with 4% paraformaldehyde (Electron Microscopy Sciences) for 15 minutes, washed 3 times with Phosphate buffered saline (PBS, Thermo Fisher), blocked for 1 hour with blocking buffer (5% normal donkey serum and 0.3% Triton X-100 in PBS), and incubated overnight with primary antibodies including mouse acetylated α-tubulin (Sigma T7451), rabbit acetylated α-tubulin (Cell Signaling, D20G3), α-fetoprotein (AFP) (R&D MAB1368), α-smooth muscle actin (SMA) (R&D MAB1420), ZO-1 (Invitrogen, 339100), E-Cadherin (Abcam, ab11512), Nephrin (R&D, AF4269), p-Histone H3 (Santa Cruz sc-8656-R), OCT4 (Abcam ab19857), brachyury (BRY) (Santa Cruz sc-17745), SOX2 (Abcam ab97959), and 3-Tubulin III (Tuj1) (Sigma-Aldrich T2200-200UL). After washing with PBS, secondary donkey antibodies conjugated with Alexa-Fluor 488, 555, or 647 (1:500, Thermo Fisher) were applied, or Fluorescein Lotus Lectin (Vector Labs, FL-1321), with DAPI to stain the nuclei. Stained cells were imaged in PBS using a Nikon AIR confocal microscope or Eclipse TE wide-field microscope.

[5] = test system: GLI1 in EV of hPSCs; test: GLI1 immunoblot of extracellular vesicles (EV) from hPSCs ±SAG; conditions: SAG stimulation
Method: KIF3A^−/−, KIF3B^−/− and isogenic control hPSCs were lysed with RIPA buffer containing protease and phosphatase inhibitors (Roche). Protein concentration was determined using a Pierce BCA protein assay kit. 50 μg of total protein was separated in a 4-20% acrylamide gel (Bio-Rad) and analyzed with silver stain (Bio-Rad) or transferred onto a PDVF membrane using standard procedures. 5% milk was used as a blocking agent prior to and during immunoblotting. […]
as §1

[6] = 1 μM SAG starting on day 1.5, by day 4 of differentiation
[7] = day 18, prolonged 16.5 day treatment, 1 μM SAG

SMILES	brachyury (BRY) immunofluorescence [1]	GLI1 levels [2, 6]	GLI3R levels [2, 6]	GLI1 [2, 7]	GLI3 [2, 7]	effect on GLI3 or GLI1 levels ([3]; 1 μM SAG starting on day 1.5)	GLI3/GLI1 response to prolonged treatment [3]	Kidney organoid differentiation (nephron organoids per well) [4]	Neuron differentiation (TUJ1+) [4]	SOX2+ neuronal progenitor cells [4]	GLI1 in EV ([5]; control or PKD1−/− hPSCs)	GLI1 in EV ([5]; kinesin-2 knockouts)	GLI3R ([2]; day 18, 10 μM cyclopamine starting on day 1.5)
Cc1c[nH]c(-c2cnc(NCCNc3ccc(C#N)cn3)nc2-c2ccc(Cl)cc2Cl)n1 [CHIR99021]	dose-dependent upregulation												
CNC1CCC(N(Cc2cccc(-c3ccncc3)c2)C(=O)c2sc3ccccc3c2Cl)CC1 (stereo not shown) [SAG]		increased levels	reduced levels	upregulated	strongly downregulated	no detectable effect	failed to respond	impaired	significantly suppressed	increased	increased after SAG stimulation	undetectable	
CC1=C2C[C@H]3[C@@H](CC=C4C[C@@H](O)CC[C@@]43C)[C@@H]2CC[C@]12O[C@@H]1C[C@H](C)CN[C@H]1[C@H]2C [cyclopamine]							failed to respond		did not reach statistical significance	strong inhibitory effect			modestly increased
